From patent US20140288323A1, “CYCLOPROPENIMINE CATALYST COMPOSITIONS AND PROCESSES” (THE TRUSTEES OF COLUMBIA UNIVERSITY IN THE CITY OF NEW YORK, priority 2011, published 2014)
“And” between values parts separate entries of the source, which are not always exact repeats. Equal values may be shown once. Where a name gives a salt, the structure may show the parent alone. Each block holds one compound with its values, some of them ahead of it.

Tests used:
[1] = Rearrangement rate study: storage stability of cyclopropenimine 5 and 5.HCl by 1H NMR; assay type: physicochemical
Description: Freshly obtained cyclopropenimine 5 was placed in a vial (250 mg per vial) and stored at room temperature and in a −20° C. freezer. Freshly isolated cyclopropenimine hydrochloride salt (250 mg of 5.HCl) was also stored at room temperature. At each time point, a small amount of the solid was removed and its ^1H NMR (CDCl3) was used to measure the ratio of cyclopropenimine to the rearranged product.

[2] = Storage of cyclopropenimine hydrochloride salts at room temperature; assay type: physicochemical; details: stored at room temperature
Description: (§1) tert-Butylamine (1.4 mL, 13.25 mmol, 3.0 equiv) was added to a solution of chlorocyclopropenium salt (Yoshida et al., 1971) (1.640 g, 4.42 mmol, 1.0 equiv) in CH2Cl2 (50 mL). A white precipitate was observed as the reaction mixture was stirred for 48 hours at room temperature. The crude reaction mixture was washed with 1.0 M HCl (3×30 mL), dried with anhydrous sodium sulfate and concentrated in vacuo to yield pure cyclopropenimine hydrochloride salt as a white solid (1.490 g, 97% yield). […] Neutral cyclopropenimine was prepared in situ in CD3CN to be used for pKBH+ estimation. ^1H NMR data was recorded after addition of excess sodium hydride or potassium tert-butoxide to the corresponding cyclopropenimine hydrochloride salt in CD3CN. ^1H NMR (300 MHz, CD3CN) δ 3.60 (m, 4H, NCH(CH3)2), 1.10-1.40 (m, 33H, NC(CH3)3, NCH(CH3)2).
Dicyclohexylamine (93.3 mL, 469.0 mmol, 6.0 equiv) was slowly added to a solution of tetrachlorocyclopropene (9.59 mL, 78.16 mmol, 1.0 equiv) in CH2Cl2 (800 mL) in a 3-liter round bottom flask. A white precipitate formed as the reaction mixture was stirred for a further four hours at room temperature. Next, (S)-2-amino-3-phenylpropan-1-ol (13.0 g, 86.0 mmol, 1.1 equiv) was added in one portion and the reaction mixture was stirred for an additional ten hours. The crude reaction mixture was filtered through a celite plug, then washed with 1.0 M HCl (3×400 mL), dried with anhydrous sodium sulfate and concentrated in vacuo to yield pure cyclopropenimine hydrochloride salt as a white solid (45.0 g, 99% yield). […] 13C NMR (100 MHz, CDCl3) δ 137.8, 129.2, 128.0, 126.2, 116.5, 114.5, 63.7, 61.3, 59.1, 38.4, 32.1, 31.9, 25.4, 24.4. X-Ray quality crystals were obtained by slow condensation of hexanes into a benzene solution of cyclopropenimine hydrochloride salt.
Dicyclohexylamine (1.27 mL, 6.42 mmol, 6.0 equiv) was slowly added to a solution of tetrachlorocyclopropene (0.13 mL, 1.07 mmol, 1.0 equiv) in CH2Cl2 (20 mL) at room temperature. A white precipitate formed as the reaction mixture was stirred for a further four hours. Next, (S)-1-phenylethanamine (0.28 mL, 2.14 mmol, 2.0 equiv) was added in one portion and the reaction mixture was stirred overnight. The crude reaction mixture was filtered through a celite plug, then washed with 1.0 M HCl (3×20 mL), dried with anhydrous sodium sulfate and concentrated in vacuo to yield pure cyclopropenimine hydrochloride salt as a white solid (567 mg, 96% yield).
The crude reaction mixture was washed with 1.0 M HCl (3×10 mL), dried with anhydrous sodium sulfate and concentrated in vacuo to yield pure cyclopropenimine hydrochloride salt as a pale yellow solid (440 mg, 98% yield).

[3] = in acetonitrile; Kaljurand et al., 2005; cited from earlier work
[4] = pKBH+ estimation of cyclopropenimine 1 by 1H NMR equilibrium with reference bases in CD3CN; assay type: physicochemical
Description: The inventors have measured the acidity of the conjugate acid (pKBH+) of cyclopropenimine (compound 1),
These findings confirm for the first time that 2,3-bis(dialkylamino)cyclopropenimines are indeed potent Brønsted bases.
as §1
(§2) Cyclopropenimine hydrochloride (18.2 mg, 0.053 mmol, 1.0 equiv) and 1,8-diazabicycloundec-7-ene (7.9 μl, 0.053 mmol, 1.0 equiv) were dissolved in CD3CN. The ^1H NMR chemical shift of the cyclopropenimine isopropyl groups was used to estimate the equilibrium ratio and equilibrium constant of the reaction. The equilibrium constant was then used, with the known pKBH+ of DBU (Kaljurand et al., 2005), to determine the estimated pKBH+. The experiment was repeated in triplicate. A representative ^1H NMR spectrum of the experiment is included.
as §2, with “(13.8” for “(18.2”, “0.04” for “0.053”, “tert-Butylimino-tri(pyrrolidino)phosphorane (12.5 mg, 0.04” for “1,8-diazabicycloundec-7-ene (7.9 μl, 0.053”, “BTPP” for “DBU”, “triplicate.” for “triplicate. A representative ^1H NMR spectrum of the experiment is included.”

SMILES: CC(C)N(c1c(N(C(C)C)C(C)C)c1=NC(C)(C)C)C(C)C [1.HCl, 3-(tert-butylimino)-N1,N1,N2,N2-tetraisopropylcycloprop-1-ene-1,2-diamine hydrochloride salt]
storage stability of the hydrochloride salt [2]: without noticeable decomposition

SMILES: CN(C)C(=NC(C)(C)C)N(C)C [BTMG]
pKBH+ [3]: 23.56

SMILES: CC(C)N(c1c(N(C(C)C)C(C)C)c1=NC(C)(C)C)C(C)C [cyclopropenimine 1, 3-(tert-butylimino)-N1,N1,N2,N2-tetraisopropylcycloprop-1-ene-1,2-diamine]
Estimated pKBH+ (CD3CN), BTPP, Average ([4]; average of three trials, BTPP as reference base, CD3CN): 26.96
Estimated pKBH+ (CD3CN), DBU, Average ([4]; average of three trials, DBU as reference base, CD3CN): 26.74
acidity of the conjugate acid (pKBH+) ([4]; in acetonitrile): 26.9
basicity relative to comparable guanidine BTMG ([4]; in acetonitrile): three orders of magnitude more basic
Estimated pKBH+ (CD3CN), BTPP ([4]; single trial, BTPP as reference base, CD3CN): 27.00 and 26.85 and 27.03
Estimated pKBH+ (CD3CN), DBU ([4]; single trial, DBU as reference base, CD3CN): 26.75 and 26.74

SMILES: C1CN=C2NCCCN2C1 [TBD]
pKBH+ [3]: 26.03

SMILES: CN(C)P(=NC(C)(C)C)(N(C)C)N(C)C [P1-^tBu]
pKBH+ [3]: 26.98

Second part, the compound after the results:

half-life ([1]; neat solid in a vial, pure sample stored at room temperature, followed over 30 days, read-out: t1/2 of conversion to rearranged compound 13 (converted)): ~12 days
Cyclopropenimine purity (%) ([1]; solid stored at rt, 0 days): 100%
Cyclopropenimine purity (%) ([1]; solid stored at rt, 2 days): 78%
Cyclopropenimine purity (%) ([1]; solid stored at rt, 9 days): 57%
Cyclopropenimine purity (%) ([1]; solid stored at rt, 16 days): 39%
Cyclopropenimine purity (%) ([1]; solid stored at rt, 23 days): 25%
Cyclopropenimine purity (%) ([1]; solid stored at rt, 30 days): 5%
Cyclopropenimine purity (%) ([1]; solid stored at −20° C., 0 days): 100%
Cyclopropenimine purity (%) ([1]; solid stored at −20° C., 2 days): 100%
Cyclopropenimine purity (%) ([1]; solid stored at −20° C., 9 days): 98%
Cyclopropenimine purity (%) ([1]; solid stored at −20° C., 16 days): 96%
Cyclopropenimine purity (%) ([1]; solid stored at −20° C., 23 days): 96%
Cyclopropenimine purity (%) ([1]; solid stored at −20° C., 30 days): 94%
sample still intact ([1]; stored at −20° C., after 30 days): 94%
SMILES: OC[C@H](Cc1ccccc1)N=c1c(N(C2CCCCC2)C2CCCCC2)c1N(C1CCCCC1)C1CCCCC1 [cyclopropenimine 5, (S)-2-(2,3-bis(dicyclohexylamino)cycloallylamino)-3-phenylpropan-1-ol]

storage stability of the hydrochloride salt [2]: without noticeable decomposition
SMILES: C[C@H](N=c1c(N(C2CCCCC2)C2CCCCC2)c1N(C1CCCCC1)C1CCCCC1)c1ccccc1.Cl [7.HCl, (S)—N1,N1,N2,N2-tetracyclohexyl-3-(1-phenylethylimino)cycloprop-1-ene-1,2-diamine hydrochloride salt]

storage stability of the hydrochloride salt [2]: without noticeable decomposition
SMILES: CC(C)N(c1c(N(C(C)C)C(C)C)c1=N[C@H](CO)Cc1ccccc1)C(C)C.Cl [8.HCl, (S)-2-(2,3-bis(diisopropylamino)cycloallylamino)-3-phenylpropan-1-ol hydrochloride salt]

Cyclopropenimine purity (%) ([1]; HCl salt stored at room temperature, 0 days): 100%
Cyclopropenimine purity (%) ([1]; HCl salt stored at room temperature, 2 days): 100%
Cyclopropenimine purity (%) ([1]; HCl salt stored at room temperature, 9 days): 100%
Cyclopropenimine purity (%) ([1]; HCl salt stored at room temperature, 16 days): 100%
Cyclopropenimine purity (%) ([1]; HCl salt stored at room temperature, 23 days): 100%
Cyclopropenimine purity (%) ([1]; HCl salt stored at room temperature, 30 days): 100%
stability of the HCl salt ([1]; at room temperature): indefinitely stable
storage stability of the hydrochloride salt [2]: without noticeable decomposition
SMILES: Cl.OC[C@H](Cc1ccccc1)N=c1c(N(C2CCCCC2)C2CCCCC2)c1N(C1CCCCC1)C1CCCCC1 [5.HCl, (S)-2-(2,3-bis(dicyclohexylamino)cycloallylamino)-3-phenylpropan-1-ol hydrochloride salt]
